Measurements taken from US20240174681A1, “SALT AND CRYSTALLINE FORMS OF FGFR4 INHIBITOR AND USES THEREOF” (BETTA PHARMACEUTICALS CO., LTD, priority 2020, published 2024).
“Also recorded” adds a separate entry of the source. Read-outs that look alike come from different tables or passages of the source. Values belong to the compound of their own block, whether it stands above or below them.

Legend:
[1] = Stability determination of crystal forms (HPLC); assay type: physicochemical; settings: for stability (in words): HPLC detection results
Description: Samples and experimental preparation: The amorphous form of the compound represented by Formula I and the crystal form A, maleate crystal form 1, maleate crystal form 2, phosphate crystal form 1 and adipate crystal form 1 of the compound represented by Formula I in appropriate amounts were tested for stability. Samples were taken at different time points separately for HPLC. The packages were polyester/aluminum/polyamide/polyethylene pharmaceutical composite films and bags.

[2] = Hygroscopicity determination by dynamic vapor sorption (DVS); assay type: physicochemical; settings: for Weight Gain for Vapor Absorption: DVS, 0% RH to 80% RH; for hygroscopicity (in words): under the test conditions
Description: The hygroscopicity of samples (which are multiple crystal forms shown in Table 14) was determined by a dynamic vapor sorption (DVS) meter. The samples were detected for changes of weight gains due to vapor absorption within the range of 0% RH (relative humidity) to 80% RH.

[3] = system: human liver cancer cells Hep3B; assay: Cell proliferation assay (CellTiter-Glo); assay type: cell-based; settings: 96 hrs incubation, CTG, read-out: IC50 of the Compound on Hep3B Cells
Description: The effect of the compound of the present disclosure on the proliferation of human liver cancer cells Hep3B cells was evaluated by an in vitro cell assay. CELL TITER-GLO (CTG) luminescence was used as a detection method in the assay, which can detect the number of living cells by quantitatively determining ATP. Since ATP participates in a variety of enzymatic reactions in organisms, the ATP is an indicator of the metabolism of living cells and its content directly reflects the number of cells and the cell state of cells. In the assay, CellTiter-Glo™ reagent was added to a cell culture medium to measure a luminescence value, the luminescence value is directly proportional to the amount of ATP, and ATP is positively correlated to the number of living cells, so cell viability can be inspected by detecting the ATP content.
A bottle of Hep3B cells in a logarithmic growth phase was taken, the cells were counted after digestion and resuspension and then inoculated into a 96-well plate after the cell density was adjusted, each well inoculated with 180 μL (1500 cells/well), and the plate was incubated for 24 hrs in a 37° C., 5% CO2 incubator. • (2) Administration to cells […]
An inhibition rate was calculated according to the luminescence value. […]

[4] = system: human liver cancer cells Hep3B xenograft; assay: Hep3B xenograft tumor model; assay type: in vivo
Description: BALB/c nu/nu female mice were inoculated with 5×10^6 human liver cancer cells Hep3B subcutaneously in the right anterior scapula, where a volume ratio of a cell suspension to matrigel was 1:1 (0.2/mL/mouse). When an average tumor volume was 158 mm^3, the mice were randomly grouped according to a tumor size. The treatment group was administered with a solution of a to-be-tested compound prepared with an appropriate solvent, and the solvent control group was administered with a blank solvent. During treatment, the tumor volume was measured twice a week, and the tumor weight was determined after a last dose to determine the activity of the compound. A tumor growth inhibition (TGI) rate (%) was calculated by comparing the tumor volumes and weights of the treatment group and the solvent control group. Body weight measurement, as the routine determination of toxicity, has the same frequency as tumor volume measurement.

[5] = Pharmacokinetic test of crystal forms in SD rats, oral; assay type: in vivo; settings: 50 mg/kg, suspension in 0.5% CMC-Na
Description: Drug preparation: A maleate crystal form 1, a phosphate crystal form 1 and an adipate crystal form 1 were weighed separately, and each crystal form was prepared in a 0.5% CMC-Na solution into a to-be-tested suspension, where the final concentration of each compound was 5 mg/mL.
Test animals: SD rats were randomly divided into three groups, each group including three male rats, and the three groups were called a maleate group, a phosphate group and an adipate group, separately.
Administration and sample collection: The SD rats in each group were subjected to oral administration at a dosage of 50 mg/kg. Blood collection time: Blood samples were collected in EDTA-K pre-anticoagulation tubes after 0 h (before administration), 0.25 h, 0.5 h, 1 h, 2 hrs, 4 hrs, 7 hrs and 24 hrs. The plasma in each sample was isolated by being centrifuged at 4000 rpm for 10 min at 4° C. Plasma samples were collected and stored at −80° C. for analytical use. The concentration of a to-be-tested compound in plasma samples was analyzed by AB4000 API LC/MS in combination with HPLC, and the pharmacokinetic parameter of the to-be-tested compound was obtained by analyzing the plasma concentration-time data of each animal.

[6] = 40° C./75% RH, packaged, day 12
[7] = 40° C./75% RH, packaged, day 5, listed as Crystal form A of the compound represented by Formula I
[8] = 40° C./75% RH, packaged, day 20
[9] = day 0, listed as Crystal form A of the compound represented by Formula I

- API Content ([1]; 25° C./75% RH, open, day 10): 98.61%
- Changed Maximum Single Impurity ([1]; 25° C./75% RH, open, day 10): 1.1%
- API Content ([1]; 40° C., open, day 10): 99.32%
- Changed Maximum Single Impurity ([1]; 40° C., open, day 10): 0.48%
- stability (in words) [1]: poor stability
- API Content ([1]; day 0): 99.63%
- Changed Maximum Single Impurity ([1]; day 0): 0.29%
- Weight Gain for Vapor Absorption [2]: 6.64%
- hygroscopicity (in words) [2]: hygroscopic
SMILES: C=CC(=O)NC1CCOCC1Nc1ncc2c(n1)-c1cc(C)cnc1N(c1c(Cl)c(OC)cc(OC)c1Cl)C2.O=C(O)C=CC(=O)O (centres unmarked) [Maleate crystal form 2]

SMILES: C=CC(=O)N[C@H]1CCOC[C@H]1Nc1ncc2c(n1)-c1cc(C)cnc1N(c1c(Cl)c(OC)cc(OC)c1Cl)C2 [Compound represented by Formula I, N-((3S,4S)-3-((6-(2,6-dichloro-3,5-dimethoxyphenyl)-9-methyl-5,6-dihydropyrimido[5,4-c][1,8]naphthyridin-2-yl)amino)tetrahydro-2H-pyran-4-yl)acrylamide]
- IC50 [3]: 5.1 nM
- inhibition rate on the tumor volume growth of Hep3B ([4]; 50 mg/kg BID×14): 73.02%
- inhibition rate on the tumor weight growth of HepB ([4]; 50 mg/kg BID×14): 84.76%
- inhibition rate on the tumor volume growth of Hep3B ([4]; 100 mg/kg BID×14): 86.26%
- inhibition rate on the tumor weight growth of HepB ([4]; 100 mg/kg BID×14): 92.27%
- inhibition rate on the tumor volume growth of Hep3B ([4]; 200 mg/kg BID×14): 90.26%
- inhibition rate on the tumor weight growth of HepB ([4]; 200 mg/kg BID×14): 98.15%
- body weight loss (routine determination of toxicity) ([4]; during the entire assay, treatment doses 50-200 mg/kg BID×14): none of the animals administered with the compound represented by Formula I showed an obvious weight loss

SMILES: C=CC(=O)N[C@H]1CCOC[C@H]1Nc1ncc2c(n1)-c1cc(C)cnc1N(c1c(Cl)c(OC)cc(OC)c1Cl)C2 [Amorphous form of the compound represented by Formula I]
- API Content ([1]; 25° C./75% RH, open, day 10): 97.21%
- Changed Maximum Single Impurity ([1]; 25° C./75% RH, open, day 10): 1.26%
- API Content ([1]; 40° C., open, day 10): 97.45%
- Changed Maximum Single Impurity ([1]; 40° C., open, day 10): 1.15%
- stability (in words) [1]: poor stability
- API Content ([1]; day 0): 98.30%
- Changed Maximum Single Impurity ([1]; day 0): 0.41%
- Weight Gain for Vapor Absorption [2]: 6.53%
- hygroscopicity (in words) [2]: hygroscopic

- API Content ([1]; 40° C./75% RH, packaged, day 5): 99.48%
- Changed Maximum Single Impurity ([1]; 40° C./75% RH, packaged, day 5): 0.26%
- API Content [1, 6]: 99.34%
- Changed Maximum Single Impurity [1, 6]: 0.28%
- stability (in words) [1]: relatively good stability
- API Content ([1]; day 0): 99.62%
- Changed Maximum Single Impurity ([1]; day 0): 0.2%
- AUClast [5]: 8355 ng·h/mL
- Cmax [5]: 2713 ng/mL
- hygroscopicity (in words) [2]: low hygroscopicity
SMILES: C=CC(=O)NC1CCOCC1Nc1ncc2c(n1)-c1cc(C)cnc1N(c1c(Cl)c(OC)cc(OC)c1Cl)C2.O=C(O)C=CC(=O)O (centres unmarked) [Maleate crystal form 1]

SMILES: C=CC(=O)N[C@H]1CCOC[C@H]1Nc1ncc2c(n1)-c1cc(C)cnc1N(c1c(Cl)c(OC)cc(OC)c1Cl)C2 [Phosphate crystal form 1]
- API Content ([1]; 40° C./75% RH, packaged, day 5): 99.39%
- Changed Maximum Single Impurity ([1]; 40° C./75% RH, packaged, day 5): 0.15%
- API Content [1, 6]: 99.56%
- Changed Maximum Single Impurity [1, 6]: 0.11%
- stability (in words) [1]: relatively good stability
- API Content ([1]; day 0): 99.32%
- Changed Maximum Single Impurity ([1]; day 0): 0.15%
- AUC(0-t) ([5]; male, rat, plasma): 6890 ng·h/mL
- Cmax ([5]; male, rat, plasma, read-out: Cmax): 1140 ng/mL
- Weight Gain for Vapor Absorption [2]: 0.19%
- hygroscopicity (in words) [2]: non-hygroscopic; also recorded: low hygroscopicity

- Weight Gain for Vapor Absorption [2]: 0.07%
- hygroscopicity (in words) [2]: non-hygroscopic
SMILES: C=CC(=O)NC1CCOCC1Nc1ncc2c(n1)-c1cc(C)cnc1N(c1c(Cl)c(OC)cc(OC)c1Cl)C2.O=C(O)C(O)C(O)C(=O)O [L-tartrate crystal form 1]

SMILES: C=CC(=O)N[C@H]1CCOC[C@H]1Nc1ncc2c(n1)-c1cc(C)cnc1N(c1c(Cl)c(OC)cc(OC)c1Cl)C2 [Crystal form A]
- API Content ([1]; 25° C./92.5% RH, open, day 20): 99.32%
- Changed Maximum Single Impurity ([1]; 25° C./92.5% RH, open, day 20): 0.17%
- API Content [1, 7]: 99.25%
- Changed Maximum Single Impurity [1, 7]: 0.19%
- API Content [1, 8]: 99.47%
- Changed Maximum Single Impurity [1, 8]: 0.17%
- API Content ([1]; 60° C., open, day 12): 99.14%
- Changed Maximum Single Impurity ([1]; 60° C., open, day 12): 0.24%
- stability (in words) [1]: relatively good stability
- API Content [1, 9]: 99.16%
- Changed Maximum Single Impurity [1, 9]: 0.19%
- Weight Gain for Vapor Absorption [2]: 0.03%
- hygroscopicity (in words) [2]: non-hygroscopic; also recorded: low hygroscopicity
